Values of other authors, collected in patent US12194065B2, “Methods and compositions to enhance metabolic detoxification systems” (Nature's Sunshine Products, Inc., priority 2017, dated 2025).

Tests used:
eNOS = eNOS (Homo sapiens, UniProt P29474)
[1] = acute supplementation of 6 g, over 120 minutes, healthy individuals with normal plasma ADMA
[2] = once produced through NOS

Chain of eNOS (P29474 2-1203): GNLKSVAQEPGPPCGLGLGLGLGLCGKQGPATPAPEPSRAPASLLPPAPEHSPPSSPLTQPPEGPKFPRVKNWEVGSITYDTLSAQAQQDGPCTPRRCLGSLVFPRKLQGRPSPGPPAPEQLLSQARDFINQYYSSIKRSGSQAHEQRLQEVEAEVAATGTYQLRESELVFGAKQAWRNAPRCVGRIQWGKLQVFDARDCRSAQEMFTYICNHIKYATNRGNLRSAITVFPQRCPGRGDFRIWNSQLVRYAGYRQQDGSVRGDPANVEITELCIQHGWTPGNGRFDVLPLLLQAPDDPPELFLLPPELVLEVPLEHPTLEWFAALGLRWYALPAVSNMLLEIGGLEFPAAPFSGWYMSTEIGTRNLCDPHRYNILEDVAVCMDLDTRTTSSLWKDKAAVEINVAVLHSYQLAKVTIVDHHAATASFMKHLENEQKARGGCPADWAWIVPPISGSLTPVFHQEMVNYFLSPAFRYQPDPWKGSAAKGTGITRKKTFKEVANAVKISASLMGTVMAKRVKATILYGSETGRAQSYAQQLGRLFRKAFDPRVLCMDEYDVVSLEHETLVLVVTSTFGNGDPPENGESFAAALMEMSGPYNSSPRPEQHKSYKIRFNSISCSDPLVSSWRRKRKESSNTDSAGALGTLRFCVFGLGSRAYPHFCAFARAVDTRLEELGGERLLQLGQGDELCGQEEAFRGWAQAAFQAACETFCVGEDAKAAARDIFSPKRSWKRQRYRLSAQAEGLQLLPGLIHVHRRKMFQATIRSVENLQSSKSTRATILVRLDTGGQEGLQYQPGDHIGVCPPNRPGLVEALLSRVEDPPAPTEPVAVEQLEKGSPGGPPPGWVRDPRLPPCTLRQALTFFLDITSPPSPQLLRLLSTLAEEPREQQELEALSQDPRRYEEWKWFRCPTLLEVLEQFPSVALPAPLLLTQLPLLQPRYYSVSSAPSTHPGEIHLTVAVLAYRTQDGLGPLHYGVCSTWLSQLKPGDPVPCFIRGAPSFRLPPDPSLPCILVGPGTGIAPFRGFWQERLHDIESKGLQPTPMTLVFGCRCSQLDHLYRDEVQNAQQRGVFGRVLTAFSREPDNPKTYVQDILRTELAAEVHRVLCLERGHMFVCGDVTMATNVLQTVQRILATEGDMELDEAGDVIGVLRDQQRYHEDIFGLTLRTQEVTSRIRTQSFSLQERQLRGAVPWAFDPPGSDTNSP

Structure (SMILES) | concentration saturating eNOS (eNOS) | plasma concentration of NOx [1] | half-life [2]
N=C(N)NCCC[C@H](N)C(=O)O [L-arginine] | approximately 3 μmol arginine/L | does not increase | 
[N]=O [NO, Nitric oxide] |  |  | approximately 1 second
